# Results reported in paper PMC5352362, “Molecular and functional evaluation of a novel HIF inhibitor, benzopyranyl 1,2,3-triazole compound” (Oncotarget, 2016).
# “Also recorded” adds a separate entry of the source.
# Columns and labels:
# [1] = system: HIF-1 (5xHRE-Luc reporter in HEK-293 cells); experiment: Dual-luciferase HRE reporter assay under hypoxia; assay type: cell-based; settings: Homo sapiens, HEK293, hypoxia 1% O2, 24 h, compared to hypoxic control, read-out: inhibition of hypoxia-induced HRE Luc reporter activity (HIF-1α transactivation)
# Description: To identify active inhibitors of HIF-1α, a cell-based reporter assay was performed. HEK-293 cells were co-transfected with pGL3-5xHRE-Luc plasmid harboring five copies of hypoxia responsive element (HRE) from the VEGF gene promoter, and with pRL-SV40 encoding Renilla genes. The HRE-containing promoter of the HIF-1 target genes is regulated by HIF-1 activation. Transfected cells were treated with chemical compounds at 1 μM and were exposed to hypoxic conditions (1% O2) for 24 h, and then were assayed. Echinomycin (E), a well-known HIF-1α inhibitor, was used as a positive control. Compared to normoxic control conditions, hypoxia increased this luciferase reporter's activity by approximately three-fold.
# Figure 1 Screening of 144 compounds from an in-house chemical library for inhibition of HIF-1 activity HEK-293 cells were co-transfected with luciferase reporter plasmids (pGL3-HRE-luciferase) and Renilla vector (pRL-SV40). Cells were exposed to hypoxic conditions in the presence or absence of chemicals for 24 h, and were then lysed for assays of luciferase activity. […]
# HEK-293 cells were seeded onto 96-well plates at a density of 5 × 10^3 cells/well, and allowed to attach for 24 h. […] Firefly luminescence was measured using a microplate reader (Infinite M200 Pro, TECAN, Männedorf, Switzerland). […] Renilla luminescence was measured using a microplate reader. […]
# [2] = system: Lewis lung carcinoma (LLC) cells; experiment: Lewis lung carcinoma allograft in C57BL/6J mice with immunohistochemistry; assay type: in vivo, mouse
# Description: HIF-1α is synthesized by growth factor signaling pathways, such as those of EGFR [30] [31]. Inhibition of HIF-1α in its pathways of synthesis, as well as in its pathway of degradation, would seem to make for a more efficient anti-cancer/anti-angiogenesis treatment. To confirm this, we performed a tumor allogaft experiment using Lewis lung carcinoma (LLC) cells. 1 × 10^6 LLC cells were inoculated into the mouse flank subcutaneously (s.c.), and treatment with Compound 12 (5 mg/kg) and/or gefitinib (an EGFR inhibitor, 50 mg/kg), via intraperitoneal (i.p.) administration, was performed every other day for 20 days. At Day 20, mice were sacrificed and tumor tissue was fixed in formaldehyde for 1 h for further histological examination. […] To confirm the effect of Compound 12 on angiogenesis, we analyzed angiogenesis using the Matrigel plug assay. […] To confirm the effects of Compound 12 on anti-angiogenesis, we sectioned the tumor tissues to determine microvessel density (MSD) via immunohistochemistry (using CD31 antibody).
# Figure 6 Compound 12 suppressed allogaft tumor growth and enhanced the effects of a chemotherapeutic agent (A, B) Lewis lung carcinoma cells were inoculated into flanks of C57BL/6J mice (Day 0). From two days after inoculation, mice were treated intraperitoneally with Compound 12 (5 mg/kg body weight) and gefitinib (50 mg/kg body weight), three times a week, for 18 days and then sacrificed. Tumor size (A) and tumor weight (B) were measured three times a week and on the final day, respectively. Tumor masses were photographed and shown in box below the graph. **P < 0.05 versus control group. (C) Matrigel was treated with DMSO, Compound 12 (100 nM), and gefitinib (5 μM) and inoculated in the flank of C57BL/6J mice. After 10 days matrigel plug was removed and photographed. The content of hemoglobin was quantified and graphed. (D) Tumor tissue sections (10 μm) indicated were stained with H&E and immunostained with anti-CD31 antibody to detect microvessel density; CD31+ cell percentages were then calculated and graphed. Scale bar, 100 μm. **P < 0.05 versus control group. (E) Images and quantitative comparisons (graph) for hypoxic regions, immunostained CA9 protein, and microvessels (CD31+ cells) in tumor center regions are shown. Scale bar, 100 μm. **P < 0.05 versus control group. (F) Images and quantitative comparisons (graph) for Ki67+ proliferating cells in tumor center regions are shown. Scale bar, 100 μm. **P < 0.05 versus control group.
# We determined levels of hypoxia in tissues via: 1) antibodies against the hypoxic cell marker pimonidazole (PIMO), and 2) checking expression levels of carbonic anhydrase (CA9), a downstream target of HIF-1.
# LLC cells (1 × 10^6) were injected subcutaneously into the flanks of 6-week-old C57BL/6J mice (Day 0)(SLC, Japan). Tumor size and body weight were measured 3 time a week. Tumor tissues were removed at day 20 after completion of injection of vehicle or drugs and fixed with 4% paraformaldehyde (PFA). After tissue processing for frozen sample preparation protocol, samples were embedded in OCT compound and frozen quickly by liquid nitrogen. Frozen blocks were cut into 10 μm sections and stained with hematoxylin and eosin (H&E) for light microscopy. Additional tissue sections for immunohistochemistry were blocked with 5% goat serum in PBST (0.03% Triton X-100 in PBS) and then incubated for 3 h at RT with following primary antibodies, anti-CD31 and anti-Ki67. To detect the hypoxic area in the tumors, Hypoxyprobe-1™ (60 mg/kg, Natural Pharmacia International) was iv injected 90 min before tissue fixation. Tumors were harvested, sectioned and stained with FITC-conjugated anti-Hypoxyprobe antibody.
structure (smiles),measurement,setting,value
"COc1ccc(-c2cn(CC3(C)C=Cc4cc([N+](=O)[O-])ccc4O3)nn2)cc1 (stereo not drawn) [Compound 12, 4-(4-methoxyphenyl)-1-((2-methyl-6-nitro-2H-chromen-2-yl)methyl)-1H-1,2,3-triazole]",inhibition at 1 µM,[1],50%
same,"PIMO/CA9 levels in tumors, Compound 12 combined with gefitinib",[2]; LLC allograft tumor sections,decreased synergistically
same,"levels of PIMO and CA9 in tumors, single agent",[2]; LLC allograft tumor sections,significantly diminished
same,"microvessel density (MSD), CD31, Compound 12 combined with gefitinib",[2]; LLC allograft tumor sections,synergistically decreased MSD
same,"microvessel density (MSD), CD31, single agent",[2]; LLC allograft tumor sections,significantly decreased MSD
same,cells expressing Ki-67 protein in tumors,"[2]; LLC allograft tumor sections, single agent",significantly decreased
same,"tumor growth, single agent","[2]; LLC allograft, C57BL/6J mice, i.p., Compound 12 5 mg/kg, gefitinib 50 mg/kg",inhibited tumor growth significantly
same,tumor weight,"[2]; LLC allograft, i.p., 5 mg/kg, final day",significantly decreased
same,"tumor growth, Compound 12 combined with gefitinib","[2]; LLC allograft, i.p., Compound 12 5 mg/kg plus gefitinib 50 mg/kg",significantly inhibited tumor growth and angiogenesis; also recorded: suppressed tumor growth more effectively than did either drug alone
